Experimental data from PubChem BioAssay AID1902 (Broad Institute, 2009).
The source made the active and inactive calls.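 Rule for the calls: active = EC50 no more than a set limit of log units above the highest dose; inactive = the rest.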

The molecules below were run against S. pyogenes SKKanGAS, kanamycin survival, BacTiterGlo, 6 h (assay: S. pyogenes SKKanGAS kanamycin growth inhibitors – SKKanGAS strain, luminescence, dose confirmation, streptokinase promoter inhibitor project, dose response (AID 1902);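 note: lower survival reflects blocked streptokinase promoter driving kanamycin resistance gene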).
In the case of `Cc1ccccc1OCC(=O)Nc1ccccc1N1CCCCC1`, the EC50 is reported as 8.71 µM.
Molecule `Cc1ccc(Nc2nc3nonc3[nH]c2=O)cc1Cl` has an EC50 of 2.54 µM.
`Cc1csc2nc(CSc3nc4ccccc4o3)c(Br)n12` showed an EC50 of 6.42 µM.
Work on `Cn1c2ccccc2c(=O)c2cc(C#Cc3ccc(N)cc3)ccc21` yielded an EC50 of 1.35 µM.
Molecule `COc1cc(NC(=O)c2cc3nc(-c4ccccc4)cc(-c4ccccc4)n3n2)cc(OC)c1OC` has an EC50 of 10.1 µM.
In the case of `Oc1ccccc1-c1nc2c3ccccc3c3ccccc3c2[nH]1`, the EC50 is reported as 2.43 µM.
Molecule `CC(C)Cn1c(N)c(C(=O)NCc2cccs2)c2nc3ccccc3nc21` has an EC50 of 5.37 µM.
`O=C(N/N=C\c1c(O)ccc2ccccc12)c1cncc(Br)c1` was tested, and the EC50 was 1.31 µM.
Molecule `O=[N+]([O-])c1ccc(/C=N/Nc2nc(-c3ccccc3)c3cc(Br)ccc3n2)o1` has an EC50 of 0.466 µM.
With `c1ccc2c(Nc3nc4c(s3)CCCC4)cccc2c1` the EC50 was 1.17 µM.
`Cc1cccc(NC(=O)C2SC(=Nc3c(C)cccc3C)C(C(=O)N3CCOCC3)=C2N)c1` (configuration not stated) showed an EC50 of 2.44 µM.
In the case of `CCCC(O)(c1ccc(Br)cc1)C(CN1CCOCC1)c1ccc(Cl)cc1` (configuration not stated), the EC50 is reported as 10.1 µM.
For `CCCCC[n+]1ccn(C2=C([O-])c3ccccc3C(=O)/C2=N\S(=O)(=O)c2ccccc2)c1`, the EC50 was 2.58 µM.
`CCc1ccccc1NC(=O)NC(C)c1ccc2c(c1)OCO2` (configuration not stated) was tested, and the EC50 was > 15 µM (inactive).
`COc1cccc(/C=N/Nc2cc(C)nc(-c3ccccc3O)n2)c1O` gave an EC50 of 1.96 µM.
With `Cc1ccc(O)c(C(=O)CC(=O)c2ccc(C(C)(C)C)cc2)c1` the EC50 was 2.6 µM.
Molecule `CC1CCN(C(=O)c2ccc3c(c2)NC(=O)/C(=C/c2ccccc2)S3)CC1` has an EC50 of 2.66 µM.
`Cc1ccc(C(=O)Nc2nc(-c3ccccc3)c(-c3ccccc3)o2)cc1` showed an EC50 of 0.541 µM.
`CCCc1cc(NCc2ccccn2)n2nc(C)c(-c3ccccc3)c2n1` gave an EC50 of 6.4 µM.
Molecule `Cc1cccc(NCc2nc3ccccc3n2Cc2ccccc2)c1` has an EC50 of 2.75 µM.
With `O=C(O)C(c1ccccc1)N1C(=O)/C(=C\c2ccc(-c3ccc(Br)cc3)o2)SC1=S` (configuration not stated) the EC50 was 1.27 µM.
For `Cn1c(Oc2ccccc2NCc2cc(Br)ccc2O)cc(=O)n(C)c1=O`, the EC50 was 4.46 µM.
Work on `COc1cccc(/C=N/Nc2ccc([N+](=O)[O-])cn2)c1O` yielded an EC50 of 0.637 µM.
`Cc1ccc(-n2[nH]c(C)c(/C=N/NC(=O)c3cccc([N+](=O)[O-])c3)c2=O)cc1C` showed an EC50 of 1.15 µM.
`O=C(Nc1cc([N+](=O)[O-])ccc1O)c1cccc(NC(=O)c2ccco2)c1` showed an EC50 of 2.78 µM.
In the case of `Cc1ccc(-c2cc(C(=O)Nc3ccc(S(=O)(=O)Nc4cc(C)on4)cc3)c3ccccc3n2)c(C)c1`, the EC50 is reported as 5.67 µM.
`O=C(COc1cccc(Oc2ccccc2)c1)Nc1ccc(SC(F)F)cc1` was tested, and the EC50 was 13 µM.
Work on `FC(F)Sc1ccc(NC(=S)NC(c2ccccc2)c2ccccc2)cc1` yielded an EC50 of 2.28 µM.
`Cc1ccc(C(=O)Nc2nnc(S(=O)(=O)N3CCN(c4ccc(F)cc4)CC3)s2)cc1` was tested, and the EC50 was > 15 µM (inactive).
With `C=C(C)COc1ccc(-c2n[nH]c(C)c2-c2ccc(Br)cc2)c(O)c1` the EC50 was 2.21 µM.
With `O=C(O)CCSc1ccc([N+](=O)[O-])cc1[N+](=O)[O-]` the EC50 was > 15 µM (inactive).
In the case of `CCN1CCN(c2cc3c(cc2F)c(=O)c(C(=O)O)cn3C2CC2)CC1`, the EC50 is reported as 1.29 µM.
For `CC(C)(C)c1cc[n+](C2=C([O-])c3ccccc3C(=O)/C2=N\S(=O)(=O)c2cccs2)cc1`, the EC50 was 2.02 µM.
With `Oc1ccc(CN2CCc3ccccc3C2)c2cccnc12` the EC50 was 4.09 µM.
Molecule `Cc1nnc(-c2cccc(Br)c2)c2cn(-c3ccc(Br)cc3)nc12` has an EC50 of 3.07 µM.
In the case of `CNC(CC(C)C)C(=O)NC1C(=O)NC(CC(N)=O)C(=O)NC2C(=O)NC3C(=O)NC(C(=O)NC(C(=O)O)c4cc(O)cc(O)c4-c4cc3ccc4O)C(O)c3ccc(c(Cl)c3)Oc3cc2cc(c3OC2OC(CO)C(O)C(O)C2OC2CC(C)(N)C(O)C(C)O2)Oc2ccc(cc2Cl)C1O` (configuration not stated), the EC50 is reported as 0.169 µM.
`CCCCCCCCCCCCOC(=O)C[N+](C)(C)C` showed an EC50 of 3.02 µM.
Work on `CC(C)C(=O)Nc1ccc(C(=O)N/N=C/c2cc(Br)cc(Br)c2O)cc1` yielded an EC50 of 1.36 µM.
`CCCc1nc(NCc2ccccc2)c(C#N)c2c1CCCC2` gave an EC50 of 2.93 µM.
Molecule `O=C(O)c1ccc(N/N=C/c2ccc(OC(=O)c3ccccc3Cl)cc2)cc1` has an EC50 of 5.02 µM.
With `O=C(Cn1nnc(-c2ccccc2)n1)N/N=C/c1cc([N+](=O)[O-])ccc1O` the EC50 was 0.75 µM.
In the case of `CC(C)c1ccc(C(=O)NC(=S)Nc2ccc3[nH]c(=O)[nH]c3c2)cc1`, the EC50 is reported as 6.26 µM.
`COc1ccc(-c2sc3ccc(OC)cc3c2C#CCCO)cc1` showed an EC50 of 9.27 µM.
With `COc1ccc(/C=c2\s/c(=C/C(=O)c3ccc(C)cc3)[nH]c2=O)cc1OC` the EC50 was 9.28 µM.
For `O=C(CSc1nnc(NC(=O)c2ccccc2[N+](=O)[O-])s1)NC1CCCC1`, the EC50 was > 15 µM (inactive).
Molecule `Cc1cccc(C)c1OCC(O)Cn1c2ccccc2c2ccccc21` (configuration not stated) has an EC50 of 3.83 µM.
Work on `CCOC(=O)c1c(C)oc2c1c(C(c1ccccc1)N1CCOCC1)c(O)c1ccccc12` (configuration not stated) yielded an EC50 of 2.66 µM.
For `O=C(COc1ccc(-c2ccccc2)cc1)N/N=C/c1cc(O)ccc1Br`, the EC50 was 2.27 µM.
Work on `O=C1C=CC(=O)N1CCNc1ncc(C(F)(F)F)cc1Cl` yielded an EC50 of 10.4 µM.
For `COc1ccc(/C=C/C(=O)NC(=S)NNC(=O)[C@H]2C[C@@H]2c2ccccc2)cc1OC`, the EC50 was 0.362 µM.
Work on `Clc1ccc2c(N/N=C/c3ccc(Br)cc3)ccnc2c1` yielded an EC50 of 3.14 µM.
`O=C1C2=C(NC(=S)NC2c2ccc(Cl)cc2)NC(c2ccc(Cl)cc2)N1c1ccc(Cl)cc1` (configuration not stated) gave an EC50 of 1.93 µM.
